Consider four compounds from patent publication EP0724571B1, “SUBSTITUTED PYRIDINE-2-ONES AND SUBSTITUTED PYRIDINE-2-THIONES AS BIOCIDES” (Arch Chemicals, Inc., priority 1993, dated 1995).

≈ marks a conversion by molar mass, not a printed value.

Common to all, as to assay: Minimum Inhibitory Concentration (MIC), broth serial dilution
Common to all, as to type: cell-based

Assay [1] deals with Candida albicans. The note with it: 120 h; C=Candida albicans; Sabouraud Dextrose Broth, 10^5 cells or spores/ml, 37°C, yeast incubated five days. Here is the method:
(§1) Solutions of the experimental compounds in dimethyl sulfoxide were serially diluted in nutrient broth (Tryptic Soy Broth for bacteria and Sabouraud Dextrose Broth for fungi) in microliter plates. Equal volumes of a broth suspension of bacteria (10^6 CFU/ml) or fungi (10^5 cells or spores/ml) were added to each dilution, and the plates were incubated at 37°C (bacteria and yeast) or 28°C (molds). Bacteria, yeast and molds were incubated two, five and seven days respectively before determining the highest inhibitory dilution.

In assay [2] the test system is Escherichia coli. The note with it: 48 h; A=Escherichia coli; Tryptic Soy Broth, 10^6 CFU/ml, 37°C, bacteria incubated two days. Here is the method: as §1
Assay [3] relates to Aspergillus niger. The note with it: 168 h; E=Aspergillus niger; Sabouraud Dextrose Broth, 10^5 cells or spores/ml, 28°C, molds incubated seven days. Here is the method: as §1
The test system of assay [4] is Staphylococcus aureus. As to conditions: 48 h; B=Staphylococcus aureus; Tryptic Soy Broth, 10^6 CFU/ml, 37°C, bacteria incubated two days. Here is the method: as §1
Assay [5] has as its system Fusarium sp. The note with it: 168 h; D=Fusarium sp.; Sabouraud Dextrose Broth, 10^5 cells or spores/ml, 28°C, molds incubated seven days. Here is the method: as §1
In assay [6] the test system is Aureobasidium pullulans. The note with it: F=Aureobasidium pullulans; Sabouraud Dextrose Broth, 10^5 cells or spores/ml. Here is the method: as §1

`CC(CCOc1cccc(=O)n1O)CC(C)(C)C` (stereo not drawn) [Example 1, 1-Hydroxy-6-(3,5,5-trimethylhexyloxy)-pyridine-2(1H)-one]: the MIC – broadly, the smallest concentration in the dilution series that meets the test's criterion for growth inhibition – in assay [1] is 2 µg/mL (≈ 7.89 µM); in assay [2] it was 32 µg/mL (≈ 126 µM); in assay [3] it was 16 µg/mL (≈ 63.2 µM); in assay [4] it was 32 µg/mL (≈ 126 µM); in assay [5] it was 2 µg/mL (≈ 7.89 µM); in assay [6], 2 µg/mL (≈ 7.89 µM).

For the compound `CCCCCCCCOc1cccc(=O)n1O` [Example 2, 1-Hydroxy-6-octyloxypyridine-2(1H)-one], the MIC in assay [1] came out at 4 µg/mL (≈ 16.7 µM); in assay [2], 32 µg/mL (≈ 134 µM); in assay [3] it was 32 µg/mL (≈ 134 µM); in assay [4] it was 16 µg/mL (≈ 66.9 µM); in assay [5], 2 µg/mL (≈ 8.36 µM); in assay [6], 4 µg/mL (≈ 16.7 µM).

For the compound `CCCCCCCCOc1cccc(=S)n1O` [Example 3, 1-hydroxy-6-octyloxypyridine-2(1H)-thione], the MIC came out at 4 µg/mL (≈ 15.7 µM) in assay [1]; 16 µg/mL (≈ 62.7 µM) in assay [2]; 8 µg/mL (≈ 31.3 µM) in assay [3]; 16 µg/mL (≈ 62.7 µM) in assay [4]; 4 µg/mL (≈ 15.7 µM) in assay [5]; 16 µg/mL (≈ 62.7 µM) in assay [6].

Regarding `Cc1cc(CC(C)CC(C)(C)C)n(O)c(=O)c1` (stereo not drawn) [OCTOPIROX® biocide, reference compound], the MIC in assay [1] is 2 µg/mL (≈ 8.43 µM); in assay [2], 128 µg/mL (≈ 539 µM); in assay [3], 2 µg/mL (≈ 8.43 µM); in assay [4], 64 µg/mL (≈ 270 µM); in assay [5], 2 µg/mL (≈ 8.43 µM); in assay [6] it was 16 to 32 µg/mL (≈ 67.4 to 135 µM).
